Measured values reported in patent publication US9045468B2, “2,5-methano- and 2,5-ethano-tetrahydrobenzazepine derivatives and use thereof to block reuptake of norepinephrine, dopamine, and serotonin” (Albany Molecular Research, Inc., priority 2010, dated 2015).
Like-named read-outs stand apart in the source and are kept apart here.

Columns and labels:
hSERT = hSERT (Homo sapiens (Human), UniProt P31645); test: SERT radioligand binding assay ([125I]RTI-55, HEK-293 membranes)
Method: (§1) The medium was removed from the flasks and the cells rinsed with HBSS without Ca and without Mg. The cells were then incubated for 5-10 minutes in 10 mM Tris-Cl, pH 7.5, 5 mM EDTA before the cells were lifted with a combination of pipetting and scraping, as needed. The cell suspension was collected into centrifuge bottles and homogenized for 30 seconds with a Polytron homogenizer. The suspension was centrifuged for 30 minutes at 32,000×g, 4° C. The supernatant was decanted and the pellet resuspended and homogenized in 50 mM Tris-Cl, pH 7.5, 1 mM EDTA for 10 seconds. The suspension was then centrifuged again for 30 minutes at 32,000×g, 4° C. The supernatant was decanted and the pellet resuspended in 50 mM Tris-Cl, pH 7.5, 1 mM EDTA and briefly homogenized. A Bradford assay (Bio-rad) was performed and the membrane preparation diluted to 2 mg/ml with 50 mM Tris-Cl, pH 7.5, 1 mM EDTA. Aliquots were prepared, and then frozen and stored at −80° C.
Compounds were dissolved in 100% DMSO at a concentration 100 times the desired highest assay concentration, serially diluted 1:3 in 100% DMSO, and 0.4 μl/well of each solution was dispensed to a Nunc polypropylene, round bottom, 384-well plate. […] The contents of the assay plate were then transferred to a Millipore MultiscreenHTS GF/B filter plate which was pretreated with 0.5% PEI for at least one hour. The plate was vacuum filtered and washed with 7 washes of […] 50 mM Tris-Cl, pH 7.5, 120 mM NaCl, 5 mM KCl chilled to 4° C. The filtration and washing were completed in less than 90 seconds. The plates were air-dried overnight, 12 μl/well of MicroScint scintillation fluid added, and the plates counted in a Trilux.
(§2) Each plate was run in triplicate, and the concentration response curve thus generated was fit using the four-parameter dose response equation, Y=Bottom+(Top-Bottom)/(1+10^((Log IC50−X)*HillSlope)) in order to determine the IC50 value for each compound. The radioligand concentration chosen for each assay corresponds to the Kd concentration determined through saturation binding analysis for each assay.

hDAT = hDAT (Homo sapiens (Human), UniProt Q01959); test: DAT radioligand binding assay ([125I]RTI-55, HEK-293 membranes); details: recombinant HEK-293 membranes, [125I]RTI-55; read-out: Binding Affinity (IC50, nM) DAT
Method: as §1, with “Recombinant HEK-293 cells expressing either the hSERT, hDAT, or hNET proteins were harvested from T-175 flasks as follows. The medium” for “The medium”
Compounds were dissolved in 100% DMSO at a concentration 100 times the desired highest assay concentration, serially diluted 1:3 in 100% DMSO, and 0.4 μl/well of each solution was dispensed to a Nunc polypropylene, round bottom, 384-well plate. […] 20 ul/well of a 2× membrane preparation (12.5 μg/ml in 30 mM sodium phosphate buffer, pH 7.9 at 4° C.) and 20 μl/well of a 2× radioligand solution (250 pM [^125I]RTI-55 in 30 mM sodium phosphate buffer, pH 7.9 at 4° C.) were added to the well and the reaction incubated for 1 hour at room temperature. The contents of the assay plate were then transferred to a Millipore MultiscreenHTS GF/B filter plate which was pretreated with 0.5% PEI for at least one hour. The plate was vacuum-filtered and washed with 7 washes of 100 μl/well 50 mM Tris-Cl, pH 7.5, 120 mM NaCl, 5 mM KCl chilled to 4° C. The filtration and washing were completed in less than 90 seconds. The plates were air-dried overnight, 12 μl/well of MicroScint scintillation fluid added, and the plates counted in a Trilux.
as §2

hNET = hNET (Homo sapiens (Human), UniProt P23975); test: NET radioligand binding assay ([3H]nisoxetine, HEK-293 membranes)
Method: as §1
Compounds were dissolved in 100% DMSO at a concentration 100 times the desired highest assay concentration, serially diluted 1:3 in 100% DMSO, and 1.0 μl/well of each solution was dispensed to a Nunc polypropylene, round bottom, 384-well plate. […] 50 μl/well of a 2× membrane preparation (0.4 mg/ml in 50 mM Tris-Cl, pH 7.5, 120 mM NaCl, 5 mM KCl) and 50 μl/well of a 2× radioligand solution (4 nM [^3H]nisoxetine in 50 mM Tris-Cl, pH 7.5, 120 mM NaCl, 5 mM KCl) were added to the well and the reaction incubated for 1 hour at room temperature. The contents of the assay plate were then transferred to a Millipore MultiscreenHTS GF/B filter plate which was pretreated with 0.5% PEI for at least one hour. The plate was vacuum filtered and washed with 7 washes of 100 μl/well 50 mM Tris-Cl, pH 7.5, 120 mM NaCl, 5 mM KCl chilled to 4° C. The filtration and washing were completed in less than 90 seconds. The plates were air-dried overnight, 12 μl/well of MicroScint scintillation fluid added, and the plates counted in a Trilux.
as §2

[1] = recombinant HEK-293 membranes, [125I]RTI-55, read-out: Binding Affinity (IC50, nM) SERT
[2] = recombinant HEK-293 membranes, [3H]nisoxetine, read-out: Binding Affinity (IC50, nM) NET

hSERT, sequence (P31645 whole entry): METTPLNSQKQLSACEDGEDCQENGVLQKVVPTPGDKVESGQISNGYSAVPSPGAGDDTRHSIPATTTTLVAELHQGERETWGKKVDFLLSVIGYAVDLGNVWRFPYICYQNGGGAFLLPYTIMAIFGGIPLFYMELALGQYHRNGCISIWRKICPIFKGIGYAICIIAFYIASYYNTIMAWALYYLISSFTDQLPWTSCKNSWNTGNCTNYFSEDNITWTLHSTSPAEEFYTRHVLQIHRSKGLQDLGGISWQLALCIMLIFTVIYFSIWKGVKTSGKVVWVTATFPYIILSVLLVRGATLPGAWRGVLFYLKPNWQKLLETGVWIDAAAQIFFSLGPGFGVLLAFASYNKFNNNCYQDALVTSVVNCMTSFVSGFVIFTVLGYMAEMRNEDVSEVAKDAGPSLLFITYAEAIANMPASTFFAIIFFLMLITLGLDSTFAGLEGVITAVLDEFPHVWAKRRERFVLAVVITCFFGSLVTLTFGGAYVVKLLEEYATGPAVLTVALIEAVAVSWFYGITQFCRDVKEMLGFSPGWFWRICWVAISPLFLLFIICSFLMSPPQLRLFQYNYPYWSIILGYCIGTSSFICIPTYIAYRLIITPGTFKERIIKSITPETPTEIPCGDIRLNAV
hNET, sequence (P23975 whole entry): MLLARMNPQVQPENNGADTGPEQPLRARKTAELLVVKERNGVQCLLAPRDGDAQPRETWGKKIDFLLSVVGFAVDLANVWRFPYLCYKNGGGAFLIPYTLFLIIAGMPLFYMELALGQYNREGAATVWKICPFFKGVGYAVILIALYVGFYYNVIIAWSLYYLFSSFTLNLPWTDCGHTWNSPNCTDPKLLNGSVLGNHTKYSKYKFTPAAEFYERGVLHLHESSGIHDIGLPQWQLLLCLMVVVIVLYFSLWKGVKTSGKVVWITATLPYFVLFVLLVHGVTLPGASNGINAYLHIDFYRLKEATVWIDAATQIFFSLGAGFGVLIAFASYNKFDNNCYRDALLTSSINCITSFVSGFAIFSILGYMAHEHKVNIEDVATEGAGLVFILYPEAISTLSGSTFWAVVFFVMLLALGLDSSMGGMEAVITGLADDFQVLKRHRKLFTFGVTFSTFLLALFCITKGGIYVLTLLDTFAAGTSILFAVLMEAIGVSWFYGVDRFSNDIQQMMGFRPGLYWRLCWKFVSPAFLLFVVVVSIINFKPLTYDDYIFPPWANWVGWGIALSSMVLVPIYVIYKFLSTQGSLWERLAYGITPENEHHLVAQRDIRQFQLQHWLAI
hDAT, sequence (Q01959 whole entry): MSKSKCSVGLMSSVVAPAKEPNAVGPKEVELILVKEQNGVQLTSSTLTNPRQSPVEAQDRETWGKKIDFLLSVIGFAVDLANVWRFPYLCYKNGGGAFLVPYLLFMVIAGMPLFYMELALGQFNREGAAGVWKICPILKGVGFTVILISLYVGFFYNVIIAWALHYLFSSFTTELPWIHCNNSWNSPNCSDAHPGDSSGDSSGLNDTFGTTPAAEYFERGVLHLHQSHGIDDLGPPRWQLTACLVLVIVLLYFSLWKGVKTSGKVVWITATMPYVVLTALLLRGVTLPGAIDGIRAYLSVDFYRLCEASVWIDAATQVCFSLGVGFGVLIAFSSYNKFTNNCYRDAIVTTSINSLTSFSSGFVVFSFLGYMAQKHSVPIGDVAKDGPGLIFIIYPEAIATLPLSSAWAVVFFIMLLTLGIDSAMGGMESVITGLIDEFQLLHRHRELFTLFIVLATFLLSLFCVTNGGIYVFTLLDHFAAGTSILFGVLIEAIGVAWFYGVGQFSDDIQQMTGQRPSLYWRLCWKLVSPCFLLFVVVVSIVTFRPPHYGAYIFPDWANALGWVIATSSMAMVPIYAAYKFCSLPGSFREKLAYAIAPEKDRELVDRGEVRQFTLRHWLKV

Row | Compound | IC50 (hSERT; [1]) | IC50 (hDAT) | IC50 (hNET; [2]) | IC50 (hSERT) | IC50 (hNET)
1 | Cc1nnc(-c2ccc3c(c2)CN2CCC3(c3ccc(Cl)cc3)CC2)s1 [Example 25, 2-(5-(4-chlorophenyl)-2,5-ethano-2,3,4,5-tetrahydro-1H-benzo[c]azepin-8-yl)-5-methyl-1,3,4-thiadiazole] | 6.4 nM | 169 nM | 392 nM | – | –
2 | FC(F)(F)c1nnc2ccc(-c3ccc4c(c3)CN3CCC4(c4ccc(Cl)cc4)C3)cn12 (racemic) [Example 4, rac-5-(4-chlorophenyl)-2,5-methano-8-(3-(trifluoromethyl)-[1,2,4]triazolo[4,3-a]pyridin-6-yl)-2,3,4,5-tetrahydro-1H-benzo[c]azepine] | – | 603 nM | 70.5 nM | – | –
3 | N#Cc1cccc(-c2ccc3c(c2)CN2CCC3(c3ccc(Cl)cc3)CC2)c1 [Example 27, 3-(5-(4-chlorophenyl)-2,5-ethano-2,3,4,5-tetrahydro-1H-benzo[c]azepin-8-yl)benzonitrile] | – | 135 nM | – | 3.4 nM | 355 nM
4 | COc1ccc2c(c1)CN1CCC2(c2ccc(Cl)cc2)C1 (racemic) [Example 1, rac-5-(4-chlorophenyl)-8-methoxy-2,5-methano-2,3,4,5-tetrahydro-1H-benzo[c]azepine] | 74.2 nM | – | 675 nM | – | –
5 | Oc1ccc2c(c1)CN1CCC2(c2ccc(Cl)cc2)C1 (racemic) [Example 2, rac-5-(4-chlorophenyl)-2,5-methano-2,3,4,5-tetrahydro-1H-benzo[c]azepin-8-ol] | 126 nM | – | – | – | –

Further lines, with some results ahead:

Row | IC50 (hSERT; [1]) | IC50 (hDAT) | IC50 (hNET; [2]) | Compound | IC50 (hSERT) | IC50 (hNET)
6 | 2.4 nM | 11.4 nM | 78.6 nM | Fc1ccc(C23CCN(Cc4cc(-c5ccc(C(F)(F)F)nn5)ccc42)C3)cc1Cl (single isomer, unassigned) [56(+), 5-(3-chloro-4-fluorophenyl)-2,5-methano-8-(6-(trifluoromethyl)pyridazin-3-yl)-2,3,4,5-tetrahydro-1H-benzo[c]azepine] | – | –
7 | 4.6 nM | 49.5 nM | 242 nM | Clc1ccc(C23CCN(Cc4cc(-c5ccc6ncnn6c5)ccc42)C3)cc1Cl (single isomer, unassigned) [10(+), 8-([1,2,4]triazolo[1,5-a]pyridin-6-yl)-5-(3,4-dichlorophenyl)-2,5-methano-2,3,4,5-tetrahydro-1H-benzo[c]azepine] | – | –
8 | 23.5 nM | 435 nM | 303 nM | CS(=O)(=O)c1ccc(-c2ccc3c(c2)CN2CCC3(c3ccc(Cl)cc3)C2)cc1 (racemic) [Example 9, rac-5-(4-chlorophenyl)-2,5-methano-8-(4-(methylsulfonyl)phenyl)-2,3,4,5-tetrahydro-1H-benzo[c]azepine] | – | –
9 | 18.6 nM | 121 nM | 956 nM | Fc1ccc(C23CCN(Cc4cc(-c5ccc6ncnn6c5)ccc42)C3)cc1Cl (single isomer, unassigned) [55(+), 8-([1,2,4]triazolo[1,5-a]pyridin-6-yl)-5-(3-chloro-4-fluorophenyl)-2,5-methano-2,3,4,5-tetrahydro-1H-benzo[c]azepine] | – | –
10 | 5.6 nM | 37.5 nM | 73.7 nM | Clc1ccc(C23CCN(Cc4cc(-c5ccc6ncnn6c5)ccc42)C3)cc1Cl (single isomer, unassigned) [10(−), 8-([1,2,4]triazolo[1,5-a]pyridin-6-yl)-5-(3,4-dichlorophenyl)-2,5-methano-2,3,4,5-tetrahydro-1H-benzo[c]azepine] | – | –
11 | 5.2 nM | 141 nM | 443 nM | Clc1ccc(C23CCN(Cc4cc(-c5ccc6ncnn6c5)ccc42)C3)cc1 (single isomer, unassigned) [3(−), 8-([1,2,4]triazolo[1,5-a]pyridin-6-yl)-5-(4-chlorophenyl)-2,5-methano-2,3,4,5-tetrahydro-1H-benzo[c]azepine] | – | –
12 | 10.1 nM | 74.2 nM | 274 nM | FC(F)(F)c1ccc(-c2ccc3c(c2)CN2CCC3(c3ccc(Cl)cc3)C2)nn1 (racemic) [Example 5, rac-5-(4-chlorophenyl)-2,5-methano-8-(6-(trifluoromethyl)pyridazin-3-yl)-2,3,4,5-tetrahydro-1H-benzo[c]azepine] | – | –
